# Source: patent US20240408033A1, “CELL-DERIVED NANOVESICLES FOR IN VIVO TRANSPORT AND DELIVERY OF THERAPEUTIC MATERIALS” (The Board of Trustees of the Leland Stanford Junior …, priority 2021, published 2024)
# Tested on: GL-26 GBM cells
# Experiment: PI staining-based apoptosis FACS analysis, GL-26 cells
# Conditions: TMZ at 250 μM, alone or with mpEVs (50 pmol)
# Text: We evaluated the therapeutic potential of miRNA-loaded mpEVs (50 pmol) in GL-26 cells in combination with TMZ and quantified the chemosensitizing effects of the miRNA-loaded mpEVs using PI staining-based FACS analysis (FIG. 13).
# To investigate the chemosensitizing effect of miRNAs-loaded mpEVs in the absence and presence of TMZ at different concentrations, we seeded the U87 glioma cells at a density of 1×10^5 cells per well in 12-well plates. Next, we treated the cells with mpEVs from control and CXCR4-NSCs with and without loaded miRNAs. On the following day, we treated the cells with TMZ at different concentrations (0 μM, 250 μM, and 500 μM) for each kind of EV. At 24 h after TMZ administration, we collected the cells and fixed in ice cold 70% ethanol at −20° C. for 30 min. We then washed the fixed cells once with 2 ml of PBS and stained with PI (15 nM) in the presence of RNase A (10 mg/ml) and 0.01% Triton-X100 (Life Technologies, Grand Island, NY, USA). […] Likewise, the chemosensitizing effect of miRNA loaded mpEVs for TMZ therapy was also investigated against GL26 cells by using a similar procedure.
compound,measurement,value
"Cn1nnc2c(C(N)=O)ncn2c1=O [TMZ, temozolomide]",apoptotic cells,13.9%
